# Source: patent US12006321B2, “Substituted pyrazolo[1,5-a]pyrimidines as apelin receptor agonists” (Sanford Burnham Prebys Medical Discovery Institute, priority 2017, dated 2024)
# pEC50: −log10 of the molar value.
# Target: T1, human apelin receptor (APJ, APLNR) (Homo sapiens, UniProt P35414)
# T1 construct: host or cells: Chinese hamster ovary (CHO) cells, stably integrated receptor
# T1 sequence (P35414 1-380): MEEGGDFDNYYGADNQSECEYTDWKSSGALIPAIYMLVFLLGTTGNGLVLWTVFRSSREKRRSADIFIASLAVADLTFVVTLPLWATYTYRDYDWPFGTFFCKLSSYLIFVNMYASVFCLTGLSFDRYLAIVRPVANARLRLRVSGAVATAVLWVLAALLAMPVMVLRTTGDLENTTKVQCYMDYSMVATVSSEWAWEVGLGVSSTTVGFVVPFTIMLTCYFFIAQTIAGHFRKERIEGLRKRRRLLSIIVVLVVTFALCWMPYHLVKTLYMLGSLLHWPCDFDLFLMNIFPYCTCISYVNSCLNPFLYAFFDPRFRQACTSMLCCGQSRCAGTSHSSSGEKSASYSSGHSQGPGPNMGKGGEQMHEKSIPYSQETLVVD
# Assay: cell-based cAMP assay (TR-FRET) in Chinese hamster ovary cells expressing the apelin receptor
# Settings: EC50 = 50% of control (apelin-13, 1 nM) response; cAMP in CHO cells, 0.5 h incubation; read-out: Potency Category
# Procedure: This example illustrates the biological activity of various compounds tested against the APJ receptor.
# Commercially available cell lines were used to screen chemical libraries to identify compounds that potently and selectively activated the human apelin receptor. The assays disclosed herein were performed using cell lines from DiscoveX, Inc.
# Biological activity was determined to the cell-based assay. This assay detects activation of the receptor by reporting on intracellular cyclic adenosine monophosphate (cAMP) level. Chinese hamster ovary cells engineered to express the stably integrated human appellant receptor (APJ, AGTRL-one, APLNR), pleaded into the wells of the microtiter plate. Cells were stimulated with […] to increase intracellular cyclic AMP. Immediately following, compounds were added to the range of final concentrations 0.0-100 μM, in DMSO (not to exceed a final DMSO concentration greater than 1% v/v), and allowed to incubate with the cells for 0.5 h. At the end of the incubation, cells were lysed to stop APJ signaling and cAMP was quantified using a commercially available competitive immunoassay kit that applies homogenous time-resolved florescence energy transfer (TR-FRET). The assay is based on the competition between a europium (Eu) chelate-labeled cAMP donor tracer and cellular cAMP for binding sites on a cAMP-specific monoclonal antibody labeled with an acceptor fluorophore. When antibodies are bound to the cAMP tracer light emissions at 320 nm stimulate the energy transfer from the donor to the acceptor, which in turn emits light at 665 nm. In the presence of competitive unlabeled cAMP (derived from the activity of the receptor or forskolin-stimulated production of cAMP), the labelled cAMP tracer is dissociated from the cAMP antibody, resulting in a loss of FRET signal. The amount of light emitted by the FRET is inversely proportional to the cAMP generated by the cell/receptor system. Potency and efficacy at APJ are reported in reference to the canonical APJ receptor agonist apelin-13 when tested at 1 nM.
# Compound competency is reported as the effective concentration required to effect 50% (EC 50) of the control (apelin—13, 1 nM) response in micromole are (μM) units. Compound efficacy (% response) is reported as a percentage of the maximal apein-13 response at 1 nM (control). Potencies were calculated by fitting a four-point logistic curve to concentration response consisting of at least 10 discrete data points spanning effective range of the compounds in the cell-based assay that measures cAMP. In Table 1, the Potency Categories are A, B, C and D. Category A EC50>500 nM; Category B 200<EC50<500 nM; Category C 100<EC50<200 nM; Category D<100 nM.
row,SMILES,pEC50
1,"Cc1cccc(CO)c1-c1c(C)nn2c(C(C)C)cc(C(=O)O)nc12 [Compound 128, 3-[6-(hydroxymethyl)-2-methylphenyl]-2-methyl-7-(methylethyl)-8-hydropyrazolo[1,5-a]pyrimidine-5-carboxylic acid]",> 7.00
2,"COc1cccc(-c2c(C)nn3c(C(C)C)cc(C(=O)O)nc23)c1 [Compound 22, 3-(3-methoxyphenyl)-2-methyl-7-(methylethyl)-8-hydropyrazolo[1,5-a]pyrimidine-5-carboxylic acid]",< 6.30
3,"CCOC(=O)c1cc(C(C)C)n2ncc(-c3c(C)cccc3C)c2n1 [Compound 52, ethyl 3-(2,6-dimethylphenyl)-7-(methylethyl)-8-hydropyrazolo[1,5-a]pyrimidine-5-carboxylate]",< 6.30
4,"Cc1cccc(C)c1-c1c(C)nn2c(C3CC3)cc(C(=O)O)nc12 [Compound 71, 3-(2,6-dimethylphenyl)-7-cyclopropyl-2-methyl-8-hydropyrazolo[1,5-a]pyrimidine-5-carboxylic acid]",6.30 to 6.70
5,CCCc1c(C)c(C(=O)OCC)nc2c(-c3c(C)cccc3C)c(C)nn12 [Compound 54],< 6.30
6,"Cc1cccc(C)c1-c1c(C)nn2c(C3CCCC3)cc(C(=O)O)nc12 [Compound 68, 3-(2,6-dimethylphenyl)-7-cyclopentyl-2-methyl-8-hydropyrazolo[1,5-a]pyrimidine-5-carboxylic acid]",6.30 to 6.70
7,"Cc1cccc(C)c1-c1c(C)nn2c(C)cc(C(=O)O)nc12 [Compound 57, 3-(2,6-dimethylphenyl)-2,7-dimethyl-8-hydropyrazolo[1,5-a]pyrimidine-5-carboxylic acid]",< 6.30
8,"Cc1cccc(C)c1-c1c(C)nn2c(N(C)c3ccc(F)cc3)cc(C(=O)O)nc12 [Compound 151, 3-(2,6-dimethylphenyl)-7-[(4-fluorophenyl)methylamino]-2-methyl-8-hydropyrazolo[1,5-a]pyrimidine-5-carboxylic acid]",< 6.30
9,"Cc1cccc(C)c1-c1c(C2CCC2)nn2c(C(C)C)cc(C(=O)O)nc12 [Compound 81, 3-(2,6-dimethylphenyl)-2-cyclobutyl-7-(methylethyl)-8-hydropyrazolo[1,5-a]pyrimidine-5-carboxylic acid]",< 6.30
10,"Cc1cccc(C)c1-c1c(C)nn2c(C(C)C)cc(N)nc12 [Compound 110, 3-(2,6-dimethylphenyl)-2-methyl-7-(methylethyl)-8-hydropyrazolo[1,5-a]pyrimidine-5-ylamine]",< 6.30
11,"Cc1ccc(-c2c(C)nn3c(C(C)C)cc(C(=O)O)nc23)c(C)c1 [Compound 45, 3-(2,4-dimethylphenyl)-2-methyl-7-(methylethyl)-8-hydropyrazolo[1,5-a]pyrimidine-5-carboxylic acid]",< 6.30
12,"CCOC(=O)c1cc(C(C)C)n2nc(C)c(-c3c(C)cc(Cl)cc3C)c2n1 [Compound 66, ethyl 3-(4-chloro-2,6-dimethylphenyl)-2-methyl-7-(methylethyl)-8-hydropyrazolo[1,5-a]pyrimidine-5-carboxylate]",< 6.30
13,"CCOC(=O)c1cc(Oc2ccccc2)n2nc(C)c(-c3c(C)cccc3C)c2n1 [Compound 109, ethyl 3-(2,6-dimethylphenyl)-2-methyl-7-phenoxy-8-hydropyrazolo[1,5-a]pyrimidine-5-carboxylate]",< 6.30
14,"COC(=O)c1cc(Cl)n2nc(C)c(-c3c(C)cccc3C)c2n1 [Compound 159, methyl 3-(2,6-dimethylphenyl)-7-chloro-2-methyl-8-hydropyrazolo[1,5-a]pyrimidine-5-carboxylate]",< 6.30
15,"CCCc1cc(C(=O)OCC)nc2c(-c3ccccc3)c(C)nn12 [Compound 35, ethyl 2-methyl-3-phenyl-7-propyl-8-hydropyrazolo[1,5-a]pyrimidine-5-carboxylate]",< 6.30
16,"CCOC(=O)c1cc(C(C)C)n2nc(C)c(-c3c(F)cccc3Cl)c2n1 [Compound 112, ethyl 3-(2-chloro-6-fluorophenyl)-2-methyl-7-(methylethyl)-8-hydropyrazolo[1,5-a]pyrimidine-5-carboxylate]",< 6.30
17,"COC(=O)c1cc(Nc2ccc(F)cc2)n2nc(C)c(-c3c(C)cccc3C)c2n1 [Compound 132, methyl 3-(2,6-dimethylphenyl)-7-[(4-fluorophenyl)amino]-2-methyl-8-hydropyrazolo[1,5-a]pyrimidine-5-carboxylate]",< 6.30
18,"CCOC(=O)c1cc(C(C)C)n2nc(C)c(-c3c(C)cccc3C)c2n1 [Compound 39, ethyl 3-(2,6-dimethylphenyl)-2-methyl-7-(methylethyl)-8-hydropyrazolo[1,5-a]pyrimidine-5-carboxylate]",< 6.30
19,"CC(C)c1cc(C(=O)O)nc2c(-c3ccccc3)c(C3CC3)nn12 [Compound 12, 2-cyclopropyl-7-(methylethyl)-3-phenyl-8-hydropyrazolo[1,5-a]pyrimidine-5-carboxylic acid]",< 6.30
20,"CCOC(=O)c1cc(C2CCCC2)n2nc(C)c(-c3c(C)cccc3C)c2n1 [Compound 69, ethyl 3-(2,6-dimethylphenyl)-7-cyclopentyl-2-methyl-8-hydropyrazolo[1,5-a]pyrimidine-5-carboxylate]",< 6.30
21,"COc1ccc(-c2c(C)nn3c(C(=O)O)cc(C(C)C)nc23)cc1 [Compound 10, 3-(4-methoxyphenyl)-2-methyl-5-(methylethyl)-8-hydropyrazolo[1,5-a]pyrimidine-7-carboxylic acid]",< 6.30
22,"Cc1ccccc1-c1c(C)nn2c(C(C)C)cc(C(=O)O)nc12 [Compound 20, 2-methyl-7-(methylethyl)-3-(2-methylphenyl)-8-hydropyrazolo[1,5-a]pyrimidine-5-carboxylic acid]",6.70 to 7.00
23,"CC1=NC2C(C(C)C)=CC(C(=O)O)=NC2=C1c1ccccc1F (stereo not shown) [Compound 24, 3-(2-fluorophenyl)-2-methyl-7-(methylethyl)-8-hydropyrazolo[1,5-a]pyrimidine-5-carboxylic acid]",< 6.30
24,"CCOC(=O)c1cc(C(C)C)n2nc(C)c(-c3c(OC)cccc3OC)c2n1 [Compound 40, ethyl 3-(2,6-dimethoxyphenyl)-2-methyl-7-(methylethyl)-8-hydropyrazolo[1,5-a]pyrimidine-5-carboxylate]",< 6.30
25,"COC(=O)c1cc(N(C)c2ccc(C)cc2)n2nc(C)c(-c3c(C)cccc3C)c2n1 [Compound 147, methyl 3-(2,6-dimethylphenyl)-2-methyl-7-[methyl(4-methylphenyl)amino]-8-hydropyrazolo[1,5-a]pyrimidine-5-carboxylate]",< 6.30
26,"Cc1cccc(C)c1-c1c(C)nn2c(C(C)C)cc(C(=O)NO)nc12 [Compound 75, 3-(2,6-dimethylphenyl)-2-methyl-7-(methylethyl)-8-hydropyrazolo[1,5-a]pyrimidine-5-carbohydroxamic acid]",6.70 to 7.00
27,"Cc1nn2c(C(C)C)cc(C(=O)N(C)C)nc2c1-c1ccccc1 [Compound 16, N,N-dimethyl[2-methyl-7-(methylethyl)-3-phenyl(8-hydropyrazolo[1,5-a]pyrimidin-5-yl)]carboxamide]",< 6.30
28,"CC(C)c1cc(C(=O)O)nc2c(-c3ccccc3)cnn12 [Compound 7, 7-(methylethyl)-3-phenyl-8-hydropyrazolo[1,5-a]pyrimidine-5-carboxylic acid]",< 6.30
